According to ChEMBL document CHEMBL3352047, “Hybrids of phenylsulfonylfuroxan and coumarin as potent antitumor agents” (J Med Chem, 2014):
The source made the active and inactive calls. The rule behind the calls is not given here.

Legend:
A2780 [1] = assay: Cell cycle arrest in human A2780 cells assessed as reduction at G0/G1 phase at 20 to 80 nM after 24 hrs by propidium iodide staining-based flow cytometry; format: functional
HeLa = assay: cells; settings: Homo sapiens, 48 h
[2] = Acute toxicity in KM mouse assessed as survival at 500 mg/kg, ip measured on day 14 relative to vehicle-treated control; format: organism-based; design: dose 500 mg/kg, route intraperitoneal; settings: in vivo
A2780 [3] = assay: Anticlonogenic activity against human A2780 cells assessed as inhibition of colony formation of cells at 5 to 20 nM after 48 hrs by gentian violet staining-based assay; format: functional, cell-based
A2780 [4] = assay: Induction of apoptosis in human A2780 cells assessed as early apoptotic cells at 20 to 80 nM after 24 hrs by annexin-V/propidium iodide staining-based flow cytometry; format: functional
A2780 [5] = assay: Antitumor activity against human A2780 cells xenografted in BALB/C nude mouse at 15 mg/kg, ip administered once every 3 days measured on day 15 relative to vehicle-treated control; format: functional; settings: route intraperitoneal, read-out: TGI
A2780 [6] = assay: Anticlonogenic activity against human A2780 cells assessed as inhibition of colony formation of cells after 48 hrs by gentian violet staining-based assay; format: functional, cell-based
[7] = Antiproliferative activity against human SKOV3 cells after 48 hrs by MTT assay; settings: SK-OV-3, 48 h
MDA-MB-231 [8] = assay: Anticlonogenic activity against human gemcitabine-resistant human MDA-MB-231 cells assessed as inhibition of colony formation of cells after 48 hrs by gentian violet staining-based assay; format: functional, cell-based
A2780 [9] = assay: Induction of apoptosis in human A2780 cells assessed as increase in p53 phosphorylation at 100 to 1000 nM after 24 hrs by Western blotting analysis; format: functional, cell-based
A2780 [10] = assay: Induction of nitric oxide generation in human A2780 cells at 500 nM after 24 hrs by Griess assay in presence of hemoglobin; format: functional, cell-based
HUVEC [11] = assay: cells; settings: Homo sapiens, 48 h
Description: Antiproliferative activity against HUVEC after 48 hrs by MTT assay

A2780 [12] = assay: Induction of nitric oxide generation in human A2780 cells after 1 hr by DAF-FM DA staining-based assay; format: functional, cell-based
A2780/CDDP = assay: Induction of nitric oxide generation in human A2780/CDDP cells at 500 nM after 24 hrs by Griess assay in presence of hemoglobin; format: functional, cell-based
A2780 [13] = assay: Cell cycle arrest in human A2780 cells assessed as reduction at S phase at 20 to 80 nM after 24 hrs by propidium iodide staining-based flow cytometry; format: functional
A2780 [14] = assay: Induction of apoptosis in human A2780 cells assessed as late apoptotic cells at 20 to 80 nM after 24 hrs by annexin-V/propidium iodide staining-based flow cytometry; format: functional
A2780 [15] = assay: Antitumor activity against human A2780 cells xenografted in BALB/C nude mouse assessed as loss in tumor weight at 15 to 30 mg/kg, ip administered once every 3 days measured after 15 days relative to vehicle-treated control; format: functional, organism-based
A2780 [16] = assay: Antitumor activity against human A2780 cells xenografted in BALB/C nude mouse at 30 mg/kg, ip administered once every 3 days measured on day 15 relative to vehicle-treated control; format: functional; settings: route intraperitoneal, read-out: TGI
T29 = assay: Induction of nitric oxide generation in human T29 cells at 100 uM after 150 mins by Griess assay; format: functional, cell-based
[17] = Acute toxicity in KM mouse assessed as survival at 250 mg/kg, ip measured on day 14 relative to vehicle-treated control; format: organism-based; design: dose 250 mg/kg, route intraperitoneal; settings: in vivo
A2780 [18] = assay: Cell cycle arrest in human A2780 cells assessed as accumulation at G2/M phase after 24 hrs by propidium iodide staining-based flow cytometry; format: functional
A2780 [19] = assay: Cell cycle arrest in human A2780 cells assessed as accumulation at G2/M phase at 20 to 80 nM after 24 hrs by propidium iodide staining-based flow cytometry; format: functional
[20] = Acute toxicity in KM mouse assessed as survival at 200 mg/kg, ip measured on day 14 relative to vehicle-treated control; format: organism-based; design: dose 200 mg/kg, route intraperitoneal; settings: in vivo
[21] = Acute toxicity in KM mouse assessed as survival at 275 mg/kg, ip measured on day 14 relative to vehicle-treated control; format: organism-based; design: dose 275 mg/kg, route intraperitoneal; settings: in vivo
[22] = Acute toxicity in KM mouse assessed as survival at 300 mg/kg, ip measured on day 14 relative to vehicle-treated control; format: organism-based; design: dose 300 mg/kg, route intraperitoneal; settings: in vivo
[23] = Acute toxicity in ip dosed KM mouse; format: organism-based; settings: in vivo
MDA-MB-231 [24] = assay: Anticlonogenic activity against human gemcitabine-resistant human MDA-MB-231 cells assessed as inhibition of colony formation of cells at 20 to 80 nM after 48 hrs by gentian violet staining-based assay; format: functional, cell-based
[25] = Antiproliferative activity against human A2780/CDDP cells after 48 hrs by MTT assay
A2780 [26] = assay: Induction of apoptosis in human A2780 cells assessed as increase in Bax protein expression after 24 hrs by Western blotting analysis; format: functional, cell-based
A2780 [27] = assay: Induction of apoptosis in human A2780 cells assessed as increase in PARP-1 cleavage at 100 to 1000 nM after 24 hrs by Western blotting analysis; format: functional, cell-based
A2780 [28] = assay: Induction of apoptosis in human A2780 cells assessed as reduction in Bcl-2 protein expression after 24 hrs by Western blotting analysis; format: functional, cell-based
HUVEC [29] = assay: Antiangiogenic activity against HUVEC assessed as disruption of tubule formation at 100 nM after overnight incubation by matrigel assay; format: functional, cell-based; settings: Homo sapiens
A2780 [30] = assay: Induction of nitric oxide generation in human A2780 cells at 100 uM after 150 mins by Griess assay; format: functional
A2780 [31] = assay: Antiproliferative activity against human A2780 cells after 48 hrs by MTT assay; settings: A2780, 48 h
A549 = assay: cells; settings: Homo sapiens, A549, 48 h
[32] = Antiproliferative activity against human T29 cells after 48 hrs by MTT assay; settings: T29, 48 h
[33] = Acute toxicity in KM mouse assessed as survival at 225 mg/kg, ip measured on day 14 relative to vehicle-treated control; format: organism-based; design: dose 225 mg/kg, route intraperitoneal; settings: in vivo
HUVEC [34] = assay: Antiangiogenic activity against HUVEC assessed as suppression of tubule formation at 10 nM after overnight incubation by matrigel assay; format: functional, cell-based; settings: Homo sapiens
[35] = Antiproliferative activity against cisplatin-resistant human SKOV3 cells after 48 hrs by MTT assay; settings: SK-OV-3, 48 h
A2780 [36] = assay: Induction of nitric oxide generation in human A2780 cells at 100 to 1000 nM after 1 hr by DAF-FM DA staining-based assay; format: functional, cell-based

Compound: Cc1cc(=O)oc2cc(OCCOc3no[n+]([O-])c3S(=O)(=O)c3ccccc3)ccc12
- Activity (A2780 [1]): Active
- IC50 (HeLa): 53 nM
- survival at 14 day [2]: 10%
- inhibition (A2780 [3]): Active
- Activity (A2780 [4]): 2.5%
- inhibition in vivo at 15 mg/kg (A2780 [5]): 55.8%
- inhibition (A2780 [6]): Dose-dependent effect
- IC50 [7]: 83 nM
- inhibition (MDA-MB-231 [8]): Dose-dependent effect
- Activity (A2780 [9]): Active
- Activity (A2780 [10]): inactive
- IC50 (HUVEC [11]): 34 nM
- Activity (A2780 [12]): Dose-dependent effect
- Activity (A2780/CDDP): inactive
- Activity (A2780 [13]): Active
- Activity (A2780 [14]): 2.5%
- Activity (A2780 [15]): Active
- inhibition in vivo at 30 mg/kg (A2780 [16]): 65.5%
- Activity (T29): Active
- survival at 14 day [17]: 60%
- Activity (A2780 [18]): Dose-dependent effect
- Activity (A2780 [19]): 64.9%
- survival at 14 day [20]: 100%
- survival at 14 day [21]: 40%
- survival at 14 day [22]: 30%
- LD50 [23]: 264 mg/kg
- inhibition (MDA-MB-231 [24]): Active
- IC50 [25]: 62 nM
- Activity (A2780 [26]): Dose-dependent effect
- Activity (A2780 [27]): Active
- Activity (A2780 [28]): Dose-dependent effect
- Activity (HUVEC [29]): Active
- Activity (A2780 [30]): 97 µM
- IC50 (A2780 [31]): 14 nM
- IC50 (A549): 24 nM
- IC50 [32]: 14 nM
- survival at 14 day [33]: 90%
- Activity (HUVEC [34]): Active
- IC50 [35]: 140 nM
- Activity (A2780 [36]): Active
